The conditions of series [1]: monkeys, reported; cited from earlier work.
Series [2] is described as follows: Excipient compatibility at 50° C., HPLC purity. It counts as physicochemical. Particulars: accelerated data. As for the experimental part:
The compatibility of the drug substances with select functional excipients was confirmed by comparing the assay and purity of samples stored at 50° C. for 5 weeks to the drug substance control samples. The excipients tested included: microcrystalline cellulose (binder); magnesium stearate (lubricant); sodium starch glycolate (disintegrant); and colloidal silica (glidant). […] The samples were transferred to a 3-dram glass vial with a tight-fitting cap and placed in a 50° C. oven.

For the compound `Nc1nc(/C(=C/CC(=O)O)C(=O)N[C@@H]2C(=O)N3C(C(=O)O)=CCS[C@H]23)cs1` [Ceftibuten, reference compound], the bioavailability (usually dose-corrected exposure relative to a reference, in per cent) in series [1] was roughly 20%. Further, the “chemical stability in the presence of the excipients (in words)” value in series [2] was “comparable to the stability for the drug substance controls”.

The values above are taken from US12559509B1, “Citrate coordination complex of an orally-delivered beta-lactamase inhibitor and uses thereof” (priority 2023, dated 2026).
